Reference: patent publication US5091392A, “Substituted (quinolin-2-yl-methoxy)phenyl-acyl-sulphon-amides and -cyanamides, processes for their preparation and their use in medicaments” (Bayer Aktiengesellschaft, priority 1989, dated 1992)

Tested on: lipoxygenase
Assay: lipoxygenase inhibition: release of leucotriene B4 (LTB4) from polymorphonuclear rat leucocytes (PMNL) after Ca ionophore, reverse phase HPLC
Type: cell-based
Conditions: LTB4 release from polymorphonuclear rats leucocytes (PMNL), read-out: LO inhibition IC50
Procedure: The pharmacological activity data of the substances according to the invention are determined by the following method: As a measure of the lipoxygenase inhibition, the release of leucotriene B4 (LTB4) from polymorphonuclear rats leucocytes (PMNL) was determined after addition of substances and Ca ionophore by means of reverse phase HPLC according to Borgeat, P. et al., Proc. Nat. Acad. Sci., 76, 2148-2152 (1979). The in vivo activity of the compounds was detected using the mouse ear inflammation model according to Young, J. M. et al., J. of Investigative Dermatology, 82, 367-371 (1984).

IC50 [nM] | Compound
27 | CS(=O)(=O)NC(=O)C(c1ccc(OCc2ccc3ccccc3n2)cc1)C1CCCC1 (stereo not drawn) [Example 1]
24 | N#CNC(=O)C(c1ccc(OCc2ccc3ccccc3n2)cc1)C1CCCC1 (stereo not drawn) [Example 7, N-{1-[4-(Quinolin-2-yl-methoxy)phenyl]-1-cyclopentyl}-acetyl-cyanamide]
33 | CN(C(=O)C(c1ccc(OCc2ccc3ccccc3n2)cc1)C1CCCC1)S(=O)(=O)C(F)(F)F (stereo not drawn) [Example 6, N-Methyl-N-{1-[4-(quinolin-2-yl-methoxy)phenyl]-1-cyclopentyl-acetyl}-trifluoromethanesulphonamide]
